Experimental data as given in patent US20250186408A1, “TREATMENT OF PHARMACORESISTANT EPILEPSY” (Katholieke Universiteit Leuven, priority 2021, published 2025).
Like-named read-outs stand apart in the source and are kept apart here.

Legend:
HTR1A = biological target: T1, HTR1A (Homo sapiens, UniProt P08908); assay: cAMP HTR1A Antagonist; conditions: for Emax: read-out: Max response
T1 sequence (P08908 1-422): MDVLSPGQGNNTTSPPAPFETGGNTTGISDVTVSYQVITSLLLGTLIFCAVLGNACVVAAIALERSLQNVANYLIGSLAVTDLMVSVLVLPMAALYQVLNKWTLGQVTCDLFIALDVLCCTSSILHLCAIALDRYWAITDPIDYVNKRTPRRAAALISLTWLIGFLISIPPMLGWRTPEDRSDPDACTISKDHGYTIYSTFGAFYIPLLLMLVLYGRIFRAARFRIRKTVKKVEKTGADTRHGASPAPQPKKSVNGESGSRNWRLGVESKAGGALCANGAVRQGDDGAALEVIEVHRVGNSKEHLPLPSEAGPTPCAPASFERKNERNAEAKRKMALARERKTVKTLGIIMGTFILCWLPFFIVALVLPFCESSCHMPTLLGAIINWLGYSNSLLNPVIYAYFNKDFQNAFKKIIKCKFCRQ
Protocol: (§2) In vitro pharmacological profiling of compounds was done against 78 functional assays for 47 common off-targets (30) by Eurofins DiscoverX Corporation (Fremont, CA, USA) using their SAFETYscan E/IC50 ELECT service (Cat Ref 87-1003DR, Safety47 Panel Dose Response). […] Compounds were tested in a range of 10 concentrations, following a 3-fold serial dilution, starting from 10 μM.
(§3) cAMP Hunter cell lines were expanded from freezer stocks. Prior to testing, cells were seeded in a total volume of 20 μL into white walled 384-well microplates and incubated at 37° C. cAMP modulation was determined using the DiscoverX HitHunter cAMP XS+ assay. For Gs agonist determination, cells were incubated with sample to induce response. For Gi agonist determination, cells were incubated with sample in the presence of EC80 forskolin to induce response. For both conditions, media was aspirated from cells and replaced with 15 μL 2:1 HBSS/10 mM HEPES:cAMP XS+ Ab reagent. Intermediate dilution of sample stocks was performed to generate 4× sample in assay buffer (containing 4×EC80 forskolin in the case of antagonist determination). 5 μL of 4× sample was added to cells and incubated at 37° C. or room temperature (RT) for 30 or 60 min. Final assay vehicle concentration was 1%. For antagonist determination, cells were pre-incubated with sample followed by agonist challenge at the EC80 concentration. Media was aspirated from cells and replaced with 10 μL 1:1 HBSS/HEPES:cAMP XS+ Ab reagent. 5 μL of 4× compound was added to the cells and incubated at 37° C. or RT for 30 min. 5 μL of 4×EC80 agonist was added to the cells and incubated at 37° C. or RT for 30 or 60 min. For Gi coupled GPCRs, EC80 forskolin was included. […] Microplates were read following signal generation with a PerkinElmer Envision™ instrument for chemiluminescent signal detection. Compound activity was analyzed using CBIS data analysis suite (ChemInnovation, CA).

HRH2 [1] = biological target: T2, HRH2 (Homo sapiens, UniProt P25021); assay: cAMP HRH2 Antagonist; assay type: cell-based; conditions: for Emax: read-out: Max response
Protocol: (§1) cAMP Hunter cell lines were expanded from freezer stocks. […] For Gi agonist determination, cells were incubated with sample in the presence of EC80 forskolin to induce response. For both conditions, media was aspirated from cells and replaced with 15 μL 2:1 HBSS/10 mM HEPES:cAMP XS+ Ab reagent. […] 5 μL of 4× sample was added to cells and incubated at 37° C. or room temperature (RT) for 30 or 60 min. Final assay vehicle concentration was 1%. […] Media was aspirated from cells and replaced with 10 μL 1:1 HBSS/HEPES:cAMP XS+ Ab reagent. […] For Gi coupled GPCRs, EC80 forskolin was included. […] Compound activity was analyzed using CBIS data analysis suite (ChemInnovation, CA).

Plasma protein binding = assay type: in vitro ADME; conditions: pH 7.4, human plasma
From the text: In vitro ADME profiling of compounds was done by Eurofins Panlabs Inc (St Charles, MO, USA) using their ADME-Tox service (Cat Ref P375, Tier 1 ADME Panel). […] (28). The atom-based log P calculation method, called OsirisP, uses as an increment system and adds contributions of every atom based on its atom type. The prediction engine distinguishes a total of 368 atom types and was optimized using a training set of more than 5000 molecules with experimentally determined log P values. The free prediction engine has proven to outperform many alternative calculation methods (29).
Human plasma, used as the protein containing matrix, was spiked with the test compound at 10 μM (final solvent concentration of 1% DMSO). The assay was performed in a 96-well format in a dialysis block (Teflon) with the dialysate compartment containing PBS (pH 7.4) and the sample side containing an equal volume of the spiked protein matrix. The plate was incubated at 37° C. for 4 h. After incubation, samples were taken from both compartments, diluted with the phosphate buffer, followed by the addition of acetonitrile and centrifugation. The supernatants were then used for HPLC-MS/MS analysis. Acebutolol, quinidine and warfarin were tested in each assay. The percentage bound to proteins and the recovery were calculated as follows: […]

ADRA1A = biological target: T3, ADRA1A (Homo sapiens, UniProt P35348); assay: Calcium Flux ADRA1A Agonist; conditions: for Emax: read-out: Max response
T3 sequence (P35348 1-466): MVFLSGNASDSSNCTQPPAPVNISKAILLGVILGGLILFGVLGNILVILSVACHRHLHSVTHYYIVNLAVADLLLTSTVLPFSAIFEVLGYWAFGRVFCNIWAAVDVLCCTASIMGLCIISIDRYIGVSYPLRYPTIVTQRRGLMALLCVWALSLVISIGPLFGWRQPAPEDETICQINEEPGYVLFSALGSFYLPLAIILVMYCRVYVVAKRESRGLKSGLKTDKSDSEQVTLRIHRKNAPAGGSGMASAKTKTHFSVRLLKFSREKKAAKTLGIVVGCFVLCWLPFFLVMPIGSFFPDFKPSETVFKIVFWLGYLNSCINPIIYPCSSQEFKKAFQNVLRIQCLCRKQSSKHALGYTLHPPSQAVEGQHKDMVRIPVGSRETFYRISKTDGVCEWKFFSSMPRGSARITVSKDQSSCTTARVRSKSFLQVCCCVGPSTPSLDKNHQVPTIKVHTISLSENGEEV
Protocol: (§4) In vitro pharmacological profiling of compounds was done against 78 functional assays for 47 common off-targets (30) by Eurofins DiscoverX Corporation (Fremont, CA, USA) using their SAFETYscan E/IC50 ELECT service (Cat Ref 87-1003DR, Safety47 Panel Dose Response). […] Compounds were tested in a range of 10 concentrations, following a 3-fold serial dilution, starting from 10 μM. The assays were performed utilizing the PathHunter enzyme fragment complementation (EFC) technology, FLIPR®-based cellular screening assays, and KINOMEscan kinase binding assays.
Prior to testing, cells (10,000 cells/well) were expanded from freezer stocks and seeded into a total volume of 50 μL into black walled, clear-bottom, Poly-D-lysine coated 384-well microplates and incubated at 37° C. […] Assays were performed in 1× dye loading buffer consisting of 1× Dye (DiscoverX, Calcium No Wash^PLUS kit, Catalog No. 90-0091), 1× Additive A and 2.5 mM Probenecid in HBSS/20 mM HEPES. Probenecid was prepared fresh. Prior to testing, media was aspirated from cells and replaced with 25 μL dye loading buffer. Cells were incubated for 45 min at 37° C. and then 20 min at RT. For agonist determination, 25 μL of 2× compound in HBSS/20 mM HEPES was added using a FLIPR Tetra (MDS). For antagonist determination, cells were pre-incubated with sample followed by agonist challenge at the EC80 concentration. 25 μL of 2× sample was added and cells were incubated for 30 min at RT in the dark to equilibrate plate temperature. After incubation, antagonist determination was initiated by addition of 25 μL of 1× compound with 3×EC80 agonist using FLIPR. For both agonist and antagonist formats, activity was measure on a FLIPR Tetra (MDS). Calcium mobilization was monitored for 2 min with a 5 sec baseline read.
FLIPR read—Area under the curve, was calculated for the entire 2 min read. Compound activity was analysed using CBIS data analysis suite (ChemInnovation, CA).

CNR1 = CNR1 (Homo sapiens, UniProt P21554); assay: cAMP CNR1 Antagonist; conditions: for Emax: read-out: Max response
Protocol: as §2
cAMP Hunter cell lines were expanded from freezer stocks. Prior to testing, cells were seeded in a total volume of 20 μL into white walled 384-well microplates and incubated at 37° C. cAMP modulation was determined using the DiscoverX HitHunter cAMP XS+ assay. For Gs agonist determination, cells were incubated with sample to induce response. For Gi agonist determination, cells were incubated with sample in the presence of EC80 forskolin to induce response. For both conditions, media was aspirated from cells and replaced with 15 μL 2:1 HBSS/10 mM HEPES:cAMP XS+ Ab reagent. Intermediate dilution of sample stocks was performed to generate 4× sample in assay buffer (containing 4×EC80 forskolin in the case of antagonist determination). 5 μL of 4× sample was added to cells and incubated at 37° C. or room temperature (RT) for 30 or 60 min. Final assay vehicle concentration was 1%. For antagonist determination, cells were pre-incubated with sample followed by agonist challenge at the EC80 concentration. Media was aspirated from cells and replaced with 10 μL 1:1 HBSS/HEPES:cAMP XS+ Ab reagent. 5 μL of 4× compound was added to the cells and incubated at 37° C. or RT for 30 min. 5 μL of 4×EC80 agonist was added to the cells and incubated at 37° C. or RT for 30 or 60 min. For Gi coupled GPCRs, EC80 forskolin was included. […] Microplates were read following signal generation with a PerkinElmer Envision™ instrument for chemiluminescent signal detection. Compound activity was analyzed using CBIS data analysis suite (ChemInnovation, CA). For Gs agonist mode assays, percentage activity was calculated using the following equation:

HRH2 [2] = biological target: T2, HRH2; assay: cAMP HRH2 Agonist; assay type: cell-based; conditions: for Emax: read-out: Max response
Protocol: as §1

CHRM2 = biological target: T4, CHRM2 (Homo sapiens, UniProt P08172); assay: cAMP CHRM2 Agonist; conditions: for Emax: read-out: Max response
T4 sequence (P08172 1-466): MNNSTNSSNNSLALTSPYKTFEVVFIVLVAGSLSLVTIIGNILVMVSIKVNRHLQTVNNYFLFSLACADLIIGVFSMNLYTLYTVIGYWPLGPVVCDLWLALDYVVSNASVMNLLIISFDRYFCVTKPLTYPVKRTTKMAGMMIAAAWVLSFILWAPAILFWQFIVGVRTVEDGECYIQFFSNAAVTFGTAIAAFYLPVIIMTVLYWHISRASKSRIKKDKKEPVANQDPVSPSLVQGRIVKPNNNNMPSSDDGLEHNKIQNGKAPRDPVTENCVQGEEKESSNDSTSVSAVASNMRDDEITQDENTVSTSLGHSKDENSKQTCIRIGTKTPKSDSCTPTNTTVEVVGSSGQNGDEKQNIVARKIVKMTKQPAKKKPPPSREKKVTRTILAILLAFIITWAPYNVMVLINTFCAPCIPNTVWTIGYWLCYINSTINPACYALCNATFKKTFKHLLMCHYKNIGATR
Protocol: as §4, §3

47 common off-targets = assay: Safety47 panel in vitro pharmacological profiling (overall); conditions: for potential off-targets (number): 78 functional assays, 47 off-targets, up to 10 μM
Protocol: The following assays were performed: (1) GPCR cAMP modulation, (2) calcium mobilization, (3) nuclear hormone receptor assays, (4) KINOMEscan binding assays, (5) ion channel assays, (6) transporter assays and (7) enzymatic assays. Compounds were tested in a range of 10 concentrations, following a 3-fold serial dilution, starting from 10 μM. The assays were performed utilizing the PathHunter enzyme fragment complementation (EFC) technology, FLIPR®-based cellular screening assays, and KINOMEscan kinase binding assays.

T2 sequence (P25021 whole entry): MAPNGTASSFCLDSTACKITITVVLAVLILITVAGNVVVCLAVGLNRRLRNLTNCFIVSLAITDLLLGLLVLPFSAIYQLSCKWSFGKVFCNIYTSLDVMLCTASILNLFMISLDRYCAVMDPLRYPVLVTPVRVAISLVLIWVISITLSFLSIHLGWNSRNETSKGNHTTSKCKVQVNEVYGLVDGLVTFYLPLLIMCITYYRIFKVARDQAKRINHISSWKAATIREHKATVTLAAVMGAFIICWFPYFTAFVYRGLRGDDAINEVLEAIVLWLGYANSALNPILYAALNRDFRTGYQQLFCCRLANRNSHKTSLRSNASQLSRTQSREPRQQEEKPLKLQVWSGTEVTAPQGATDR
Sequence of CNR1 (P21554 whole entry): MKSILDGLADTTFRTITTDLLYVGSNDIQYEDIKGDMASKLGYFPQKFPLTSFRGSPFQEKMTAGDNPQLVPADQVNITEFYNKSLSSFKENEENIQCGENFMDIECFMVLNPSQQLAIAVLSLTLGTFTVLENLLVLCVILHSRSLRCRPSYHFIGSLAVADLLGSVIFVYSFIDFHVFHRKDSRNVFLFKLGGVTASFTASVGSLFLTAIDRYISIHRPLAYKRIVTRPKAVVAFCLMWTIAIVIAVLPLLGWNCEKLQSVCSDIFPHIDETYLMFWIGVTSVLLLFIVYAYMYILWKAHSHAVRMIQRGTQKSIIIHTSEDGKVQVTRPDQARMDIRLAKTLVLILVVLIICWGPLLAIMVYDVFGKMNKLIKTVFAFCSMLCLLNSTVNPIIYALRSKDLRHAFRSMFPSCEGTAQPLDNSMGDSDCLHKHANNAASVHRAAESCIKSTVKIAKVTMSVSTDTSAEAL

Row | Compound | IC50 (HTR1A) | Emax (HTR1A) | Emax (HRH2 [1]; cAMP HRH2 Antagonist) | IC50 (HRH2 [1]; cAMP HRH2 Antagonist, read-out: RC50, result type IC50) | fraction unbound at 4 h, 10 μM (Plasma protein binding) | EC50 (ADRA1A) | Emax (ADRA1A) | IC50 (CNR1) | Emax (CNR1) | Emax (HRH2 [2]; cAMP HRH2 Agonist) | EC50 (HRH2 [2]; cAMP HRH2 Agonist, read-out: RC50, result type EC50) | EC50 (CHRM2) | Emax (CHRM2) | potential off-targets (number) (47 common off-targets) | IC50 (HRH2 [1]) | Emax (HRH2 [1]) | EC50 (HRH2 [2]) | Emax (HRH2 [2]) | IC50 (47 common off-targets; read-out: IC50 values at the potential off-targets, CHRM2, DRD2S, HTR1B, nAChR a4/b2)
1 | Clc1cccc(C#Cc2n[nH]c3ncccc23)c1 [Compound 10.1, 3-((3-chlorophenyl)ethynyl)-1H-pyrazolo[3,4-b]pyridine] | > 10 µM | 0% | 13.9% | > 10 µM | 0.0035 | > 10 µM | 0.6% | > 10 µM | 0% | 0.4% | > 10 µM | > 10 µM | 32.5% | none | – | – | – | – | –
2 | CC(C)(C)c1ccc(C#CC(O)c2ccccc2)cc1 (racemic) [Compound 3.3, rac-3-(4-(tert-butyl)phenyl)-1-phenylprop-2-yn-1-ol] | > 10 µM | 47.2% | – | – | 0.002 | > 10 µM | 0.6% | > 10 µM | 17.5% | – | – | > 10 µM | 0% | 4 | > 10 µM | 2.7% | > 10 µM | 2.2% | 4 to 8 µM
